From patent US6914045B2, “Glycopeptide antibiotics” (Wyeth Holdings Corporation, priority 2001, dated 2005)
Converted amounts (≈) assume the structure as drawn.

How the values were obtained:
Enterococcus sp. = assay: in vitro antibacterial evaluation, MIC by broth dilution; format: cell-based; settings: broth dilution, 18 hours at 35° C.
Summary of the method: (§1)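 Test organisms, which included recent clinical isolates resistant to methicillin, penicillin and/or vancomycin, were inoculated at 5×10^5 CFU/mL into Muller-Hinton II […] containing antibiotic at 64-0.06 μg/mL. Minimum inhibitory concentrations were then read as the lowest level inhibiting growth.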

Staphylococcus sp. = assay: as above; format: cell-based; settings: broth dilution, 18 hours at 35° C.
Summary of the method: as §1

Streptococcus sp. = assay: as above; format: cell-based; settings: broth dilution, 18 hours at 35° C.
Summary of the method: as §1

[1] = clinical pathology (serum clinical chemistry) in mice; format: in vivo; settings: CD-1 mice, 20 mg/kg intravenously daily for 9 days, sera day 10
Procedure: 20-day-old CD-1 mice were divided into a vehicle control group (5 mice) and a treatment group (5 mice). Samples of glycopeptide antibiotics were administered at 20 mg/kg intravenously daily for 9 days.

[2] = anatomic pathology (histopathology of heart and kidney) in mice; format: in vivo; settings: CD-1 mice, 20 mg/kg intravenously daily for 9 days, necropsy day 10, microscopic histopathology
Procedure: Samples of tissues from necropsied mice were formalin-fixed, paraffin-embedded, sectioned, stained with hematoxylin and eosin, and examined microscopically. Histopathologic findings were recorded. These findings were subjectively graded on a scale corresponding to slight, mild, moderate, marked and severe as compared to untreated controls.

Escherichia coli = assay: in vitro antibacterial evaluation, MIC by broth dilution; format: cell-based; settings: 18 hours at 35° C.
Summary of the method: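 MIC is the lowest antibiotic concentration (tested 64-0.06 μg/mL) preventing growth of a 5×10^5 CFU/mL inoculum. Determined by broth dilution in Mueller-Hinton II medium following NCCLS standard M7-A2.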

## CC(c1ccccc1)C1NC(=O)CNC(=O)C(CO)NC(=O)C(C(O)C2CN(CCCCCCCCCCC(=O)O)C(=N)N2C2OC(CO)C(O)C(O)C2O)NC(=O)C(C(O)C2CNC(=N)N2)NC(=O)C(Cc2ccc(OC3OC(CO)C(OC4OC(CO)C(O)C(O)C4O)C(O)C3O)cc2)NC1=O (stereo not drawn) [Example 72, Cyclo[glycyl-β-methylphenylalanyl-O-(4-O-hexopyranosylhexopyranosyl)tyrosyl-3-(2-iminoimidazolidin-4-yl)seryl-3-[1-(10-carboxydecyl)-3-hexopyranosyl-2-iminoimidazolidin-4-yl]serylseryl]]
Enterococcus sp.; Enterococcus avium (GC 4558)
  MIC Enterococcus avium (GC 4558): 64 µg/mL (≈ 43.3 µM)
Enterococcus sp.; Enterococcus faecalis (ATCC 29212)
  MIC Enterococcus faecalis (ATCC 29212): >128 µg/mL
Enterococcus sp.; Enterococcus faecalis (GC 4552)
  MIC Enterococcus faecalis (GC 4552): >128 µg/mL
Enterococcus sp.; Enterococcus faecalis (GC 4553)
  MIC Enterococcus faecalis (GC 4553): 64 µg/mL (≈ 43.3 µM)
Enterococcus sp.; Enterococcus faecalis (GC 4554)
  MIC Enterococcus faecalis (GC 4554): >128 µg/mL
Enterococcus sp.; Enterococcus faecalis (GC 6189)
  MIC Enterococcus faecalis (GC 6189): >128 µg/mL
Enterococcus sp.; Enterococcus faecium (GC 2243)
  MIC Enterococcus faecium (GC 2243): >128 µg/mL
Enterococcus sp.; Enterococcus faecium (GC 4556)
  MIC Enterococcus faecium (GC 4556): >128 µg/mL
Enterococcus sp.; Enterococcus faecium (GC 4557)
  MIC Enterococcus faecium (GC 4557): 128 µg/mL (≈ 86.5 µM)
Enterococcus sp.
  MIC Enterococcus avium (GC 4558): 64 µg/mL (≈ 43.3 µM)
  MIC Enterococcus faecalis (ATCC 29212): >128 µg/mL
  MIC Enterococcus faecalis (GC 2242): >128 µg/mL
  MIC Enterococcus faecalis (GC 2691): >128 µg/mL
  MIC Enterococcus faecalis (GC 3059): >128 µg/mL
  MIC Enterococcus faecalis (GC 4552): >128 µg/mL
  MIC Enterococcus faecalis (GC 4553): 64 µg/mL (≈ 43.3 µM)
  MIC Enterococcus faecalis (GC 4554): >128 µg/mL
  MIC Enterococcus faecalis (GC 6189): >128 µg/mL
  MIC Enterococcus faecium (GC 2243): >128 µg/mL
  MIC Enterococcus faecium (GC 4556): >128 µg/mL
  MIC Enterococcus faecium (GC 4557): 128 µg/mL (≈ 86.5 µM)
Enterococcus sp.; strain GC 2242
  MIC Enterococcus faecalis (GC 2242): >128 µg/mL
Enterococcus sp.; strain GC 2691
  MIC Enterococcus faecalis (GC 2691): >128 µg/mL
Enterococcus sp.; strain GC 3059
  MIC Enterococcus faecalis (GC 3059): >128 µg/mL
Staphylococcus sp.; strain ATCC 29213
  MIC Staphylococcus aureus (ATCC 29213): >128 µg/mL
Staphylococcus sp.; strain GC 1131
  MIC Staphylococcus aureus (GC 1131): >128 µg/mL
Staphylococcus sp.; strain GC 3051
  MIC Staphylococcus aureus (GC 3051): >128 µg/mL
Staphylococcus sp.; strain GC 3053
  MIC Staphylococcus aureus (GC 3053): >128 µg/mL
Staphylococcus sp.; strain GC 4541
  MIC Staphylococcus aureus (GC 4541): >128 µg/mL
Staphylococcus sp.; strain GC 4542
  MIC Staphylococcus aureus (GC 4542): >128 µg/mL
Staphylococcus sp.; strain GC 4543
  MIC Staphylococcus aureus-SMITH (GC 4543): >128 µg/mL
Staphylococcus sp.; strain GC 4544
  MIC Staphylococcus aureus (GC 4544): >128 µg/mL
Staphylococcus sp.; strain GC 4545
  MIC Staphylococcus aureus (GC 4545): >128 µg/mL
Staphylococcus sp.; strain GC 4546
  MIC Staphylococcus haemolyticus (GC 4546): >128 µg/mL
Staphylococcus sp.; strain GC 4547
  MIC Coagulase Negative Staphylococcus (GC 4547): >128 µg/mL
Staphylococcus sp.; strain GC 4548
  MIC Coagulase Negative Staphylococcus (GC 4548): >128 µg/mL
Staphylococcus sp.; strain GC 4549
  MIC Coagulase Negative Staphylococcus (GC 4549): >128 µg/mL
Staphylococcus sp.; strain GC 4551
  MIC Coagulase Negative Staphylococcus (GC 4551): >128 µg/mL
Staphylococcus sp.; strain GC 6257
  MIC Coagulase Negative Staphylococcus (GC 6257): >128 µg/mL
Streptococcus sp.
  MIC Streptococcus agalactiae (GC 4564): 128 µg/mL (≈ 86.5 µM)
  MIC Streptococcus pneumoniae (ATCC 6301): 64 µg/mL (≈ 43.3 µM)
  MIC Streptococcus pneumoniae (GC 1894): 16 µg/mL (≈ 10.8 µM)
  MIC Streptococcus pneumoniae (GC 4565): 64 µg/mL (≈ 43.3 µM)
  MIC Streptococcus pyogenes (GC 4563): 64 µg/mL (≈ 43.3 µM)
Streptococcus sp.; strain ATCC 6301
  MIC Streptococcus pneumoniae (ATCC 6301): 64 µg/mL (≈ 43.3 µM)
Streptococcus sp.; strain GC 1894
  MIC Streptococcus pneumoniae (GC 1894): 16 µg/mL (≈ 10.8 µM)
Streptococcus sp.; strain GC 4563
  MIC Streptococcus pyogenes (GC 4563): 64 µg/mL (≈ 43.3 µM)
Streptococcus sp.; strain GC 4564
  MIC Streptococcus agalactiae (GC 4564): 128 µg/mL (≈ 86.5 µM)
Streptococcus sp.; strain GC 4565
  MIC Streptococcus pneumoniae (GC 4565): 64 µg/mL (≈ 43.3 µM)
[1]
  Clinical Chemistry (Day 10) % of Control, BUN: +122%
[2]
  Anatomical Pathology (Day 10), Heart: 0
  Anatomical Pathology (Day 10), Kidney: ++
Escherichia coli
  MIC Escherichia coli (ATCC 25922): >128 µg/mL
  MIC Escherichia coli (GC 4559): >128 µg/mL
  MIC Escherichia coli (GC 4560): 32 µg/mL (≈ 21.6 µM)
